This note sets out measurements from paper PMC4674695, “Antagonism of Nav channels and α1-adrenergic receptors contributes to vascular smooth muscle effects of ranolazine” (Scientific Reports, 2015).

One may read the % inhibition as how much of the control response was suppressed. Low values mean a weak effect, high ones a strong effect.

This test relates to T1, tetrodotoxin-sensitive voltage-gated Nav channels.
T1 construct: gene Scn1a
The test is described as follows: whole-cell patch clamp, voltage ramp. The format is cell-based, Rattus norvegicus. To be noted: INa at maximal amplitude; veratridine 100 μM present, 2 mM NiCl2, 22–24 °C, pH 7.4; block voltage-dependent. (Patch clamp records ionic current or voltage across a cell membrane.)

Take `COc1ccccc1OCC(O)CN1CCN(CC(=O)Nc2c(C)cccc2C)CC1` (stereo not shown) [ranolazine]: the “% inhibition at 20 μM” value is listed as 40%.
